Values after ≈ are worked out from the molar mass of the structure shown.
Key:
[1] = test system: P. acnes 6922; test: MIC microdilution, gram positive; format: cell-based, Propionibacterium acnes; settings: Table 1, Gram Positive; for MIC: Cutibacterium acnes, 6922
Protocol: (§1) The MIC's for the compounds were determined by a modified microdilution tube dilution method described in “Methods for Dilution Antimicrobial Susceptibility Tests for Bacteria that Grow Aerobically” (National Committee for Clinical Laboratory Standards Approved Standards, 1997, NCCLS document M7-A4). In general the modifications were made because of the unique growth requirements for the fastidious oral organisms and for those bacteria that require anaerobic conditions. Reference is also made to “Methods for Antimicrobial Susceptibility of Anaerobic Bacteria” (National Committee for Clinical Laboratory Standards Approved Standards, 1997, NCCLS document M11-A4). Briefly, the methods were as follows. Cultures were grown for 18-24hrs (aerobic bacteria) or 48-72 hrs (anaerobic bacteria) in the appropriate medium. For aerobic bacteria full strength brain heart infusion medium (BHI, Difco) was used. For anaerobic bacteria, half strength BHI (18.5 g/L) was supplemented by adding yeast extract (10 g/L), hemin (0.29 mL of a stock solution containing 0.1 g/200 mL dH2O) and menadione (15 mL of a stock solution containing 0.15 mL in 30 mL 95% EtOH) was used. Initial cultures were diluted to approximately 1×10^8 CFU/mL for use as an inoculum. Each assay received 10 μL of the inoculum. The drugs were prepared from a stock solution contained in dimethyl sulfoxide (DMSO) and diluted into the culture medium. Final concentrations of the drugs ranged from 50 to 0.05 μg/assay. The tests were run in duplicate and were incubated appropriately with regard to oxygen requirements for 24 to 48 hrs as required. Anaerobic incubation was an atmosphere of 5% CO2, 10% H2, with the balance N2. The lowest concentration of an antimicrobial agent at which no visible growth is noted was referred to as the MIC.

[2] = test system: P. acnes 11828; test: MIC microdilution, gram positive; format: cell-based, Propionibacterium acnes; settings: Table 1, Gram Positive
Protocol: as §1

[3] = test system: M. luteus; test: MIC microdilution, gram positive; format: cell-based, Micrococcus luteus; settings: Table 2, Gram Positive
Protocol: as §1

[4] = test system: Fuso. 25586; test: MIC microdilution, gram negative; format: cell-based, Fusobacterium nucleatum
Protocol: (§2) The MIC's for the compounds were determined by a modified microdilution tube dilution method described in “Methods for Dilution Antimicrobial Susceptibility Tests for Bacteria that Grow Aerobically” (National Committee for Clinical Laboratory Standards Approved Standards, 1997, NCCLS document M7-A4). In general the modifications were made because of the unique growth requirements for the fastidious oral organisms and for those bacteria that require anaerobic conditions. Reference is also made to “Methods for Antimicrobial Susceptibility of Anaerobic Bacteria” (National Committee for Clinical Laboratory Standards Approved Standards, 1997, NCCLS document M11-A4). Briefly, the methods were as follows. Cultures were grown for 18-24hrs (aerobic bacteria) or 48-72 hrs (anaerobic bacteria) in the appropriate medium. For aerobic bacteria full strength brain heart infusion medium (BHI, Difco) was used. For anaerobic bacteria, half strength BHI (18.5 g/L) was supplemented by adding yeast extract (10 g/L), hemin (0.29 mL of a stock solution containing 0.1 g/200 mL dH2O) and menadione (15 mL of a stock solution containing 0.15 mL in 30 mL 95% EtOH) was used. Initial cultures were diluted to approximately 1×10^8 CFU/mL for use as an inoculum. Each assay received 10 μL of the inoculum. The drugs were prepared from a stock solution contained in dimethyl sulfoxide (DMSO) and diluted into the culture medium. Final concentrations of the drugs ranged from 50 to 0.05 μg/assay. The tests were run in duplicate and were incubated appropriately with regard to oxygen requirements for 24 to 48 hrs as required. Anaerobic incubation was an atmosphere of 5% CO2, 10% H2, with the balance N2. The lowest concentration of an antimicrobial agent at which no visible growth is noted was referred to as the MIC. […] The method used was the same as described in Example 1.

[5] = test system: S. mutans; test: MIC microdilution, gram positive; format: cell-based, Streptococcus mutans; settings: Table 1, Gram Positive; for MIC: Streptococcus mutans
Protocol: as §1

[6] = test system: Pg 53977; test: MIC microdilution, gram negative; format: cell-based, Porphyromonas gingivalis
Protocol: as §2

[7] = test system: P. ging 381; test: MIC microdilution, gram negative; format: cell-based, Porphyromonas gingivalis; settings: for MIC: Porphyromonas gingivalis, 381
Protocol: as §2

[8] = test system: S. species R; test: Staphylococcus MIC; format: cell-based, staphylococcus species R; settings: second Table 5 (Example 5); strain 00-045-1209
Protocol: (§3) The MIC's for the compounds were determined by a modified microdilution tube dilution method described in “Methods for Dilution Antimicrobial Susceptibility Tests for Bacteria that Grow Aerobically” (National Committee for Clinical Laboratory Standards Approved Standards, 1997, NCCLS document M7-A4). In general the modifications were made because of the unique growth requirements for the fastidious oral organisms and for those bacteria that require anaerobic conditions. Reference is also made to “Methods for Antimicrobial Susceptibility of Anaerobic Bacteria” (National Committee for Clinical Laboratory Standards Approved Standards, 1997, NCCLS document M11-A4).
(§4) Briefly, the methods were as follows. Cultures were grown for 18-24hrs (aerobic bacteria) or 48-72 hrs (anaerobic bacteria) in the appropriate medium. For aerobic bacteria full strength brain heart infusion medium (BHI, Difco) was used. For anaerobic bacteria, half strength BHI (18.5 g/L) was supplemented by adding yeast extract (10 g/L), hemin (0.29 mL of a stock solution containing 0.1 g/200 mL dH2O) and menadione (15 mL of a stock solution containing 0.15 mL in 30 mL 95% EtOH) was used. Initial cultures were diluted to approximately 1×10^8 CFU/mL for use as an inoculum. Each assay received 10 μL of the inoculum. The drugs were prepared from a stock solution contained in dimethyl sulfoxide (DMSO) and diluted into the culture medium. Final concentrations of the drugs ranged from 50 to 0.05 μg/assay. The tests were run in duplicate and were incubated appropriately with regard to oxygen requirements for 24 to 48 hrs as required. Anaerobic incubation was an atmosphere of 5% CO2, 10% H2, with the balance N2. The lowest concentration of an antimicrobial agent at which no visible growth is noted was referred to as the MIC.
(§5) This embodiment describes the sensitivity of various staphylococcus strains to the compounds of the present invention. The staphylococcus species R is a strain 00-045-1209 from the Children's Hospital in Buffalo. It was isolated from the peritoneal cavity (fluid culture) of an individual. It was coagulase negative. The sensitivity of this strain was tested agaisnt several known antibiotics.

[9] = test system: S. aureus; test: MIC microdilution, gram positive; format: cell-based, Staphlococcus aureus; settings: for MIC: Staphylococcus aureus
Protocol: as §3, §4, §5

[10] = test system: Str. pn; test: Mean Streptococcus MIC; format: cell-based; settings: Table 5, mean
Protocol: as §3, §4
(§6) This embodiment illustrates the efficacy of the compounds of the present invention against Streptococcus strains. One of the strains, Str.pn.R was obtained from the Children's Hospital in Buffalo (strain 00-041-0614). […] The sensitivity of this strain was tested against several known antibiotics.

[11] = test system: Str. pn. R; test: Mean Streptococcus MIC; format: cell-based; settings: Table 5, mean; strain resistant to penicillin and erythromycin
Protocol: as §3, §4, §6

[12] = test system: S.salivarius; test: MIC microdilution, gram positive; format: cell-based, Streptococcus salivarius; settings: Table 1, Gram Positive
Protocol: as §1

[13] = test system: A. viscosus; test: MIC microdilution, gram positive; format: cell-based, Actinomyces viscosus; settings: Table 2, Gram Positive; for MIC: Actinomyces viscosus
Protocol: as §1

[14] = test system: B. fragilis; test: MIC microdilution, gram negative; format: cell-based, Bacteroides fraglis
Protocol: as §2

[15] = test system: S. sanguis; test: MIC microdilution, gram positive; format: cell-based, Streptococcus sanguis; settings: Table 1, Gram Positive
Protocol: as §1

[16] = test system: Aa Y4; test: MIC microdilution, gram negative; format: cell-based, Actinobacillus actinomycetemcomitans
Protocol: as §2

[17] = test system: Lact 7496; test: MIC microdilution, gram positive; format: cell-based, Lactobacillus rhamnosus (casei); settings: Table 2, Gram Positive
Protocol: as §1

[18] = Table 3 printed a second time, Gram Negative

SMILES | MIC P. acnes 6922 [1] | MIC S. mutans [5] | MIC P. ging 381 ([7]; Table 3, Gram Negative) | MIC P. ging 381 [7, 18] | MIC S. aureus ([9]; Table 2, Gram Positive) | MIC A. viscosus [13] | MIC [1] | MIC [5] | MIC ([7]; Table 3, Gram Negative) | MIC ([9]; Table 2, Gram Positive) | MIC [13] | further results
N#Cc1ccc(NC(=O)c2cc(C(=O)c3ccc4ccccc4c3)ccc2O)cc1 [NA2pC] | 6.3 micrograms/ml | 1.6 micrograms/ml | 0.4 micrograms/ml | 0.4 micrograms/ml | 6.3 micrograms/ml | 1.6 micrograms/ml |  |  |  |  |  | MIC P. acnes 11828 [2]: 6.3 micrograms/ml; MIC M. luteus [3]: 3.1 micrograms/ml; MIC Fuso. 25586 ([4]; Table 3, Gram Negative): 12.5 micrograms/ml; MIC Fuso. 25586 [4, 18]: 12.5 micrograms/ml; MIC Pg 53977 ([6]; Table 3, Gram Negative): 0.4 micrograms/ml; MIC Pg 53977 [6, 18]: 0.4 micrograms/ml; MIC S. species R [8]: 12.5 micrograms/ml; MIC S. aureus ([9]; second Table 5 (Example 5)): 6.3 micrograms/ml; Mean Streptococcus MIC values Str. pn [10]: 0.58 micrograms/ml; Mean Streptococcus MIC values Str. pn. R [11]: 3.12 micrograms/ml; MIC S.salivarius [12]: 50 micrograms/ml; MIC B. fragilis ([14]; Table 3, Gram Negative): 3.1 micrograms/ml; MIC B. fragilis [14, 18]: 3.1 micrograms/ml; MIC S. sanguis [15]: 6.3 micrograms/ml; MIC Aa Y4 ([16]; Table 3, Gram Negative): 6.3 micrograms/ml; MIC Aa Y4 [16, 18]: 6.3 micrograms/ml; MIC Lact 7496 [17]: 6.3 micrograms/ml
COc1cc(NC(=O)c2cc(C(=O)c3cccc4ccccc34)ccc2O)cc(OC)c1 [NA1-2mOMe] | NE (NE indicates that the drug was not effective at a concentration >50 micrograms/ml) | NE (NE indicates that the drug was not effective at a concentration >50 micrograms/ml) | NE (NE indicates that the drug was not effective at a concentration >50 micrograms/ml) | NE (NE indicates that the drug was not effective at a concentration >50 micrograms/ml) | NE (NE indicates that the drug was not effective at a concentration >50 micrograms/ml) | NE (NE indicates that the drug was not effective at a concentration >50 micrograms/ml) |  |  |  |  |  | 
O=C(Nc1ccccc1)c1cc(C(=O)c2cccc3ccccc23)ccc1O [NA1, 2-Hydroxy-5-(naphthalene-1-carbonyl)-N-phenyl-benzamide] |  |  |  | 1.6 micrograms/ml |  |  | 25 µg/mL (≈ 68 µM) | 50 µg/mL (≈ 136 µM) | 1.6 µg/mL (≈ 4.35 µM) | 50 µg/mL (≈ 136 µM) | 3.1 µg/mL (≈ 8.44 µM) | MIC ([2]; Cutibacterium acnes, 11828): > 50 µg/mL; MIC ([12]; Streptococcus salivarius): > 50 µg/mL; MIC ([15]; Streptococcus): > 50 µg/mL
O=C(Nc1cccc(C(F)(F)F)c1)c1cc(C(=O)c2c(O)ccc3ccccc23)ccc1O [NA1OHmF] |  |  |  | 0.8 micrograms/ml |  |  | 3.1 µg/mL (≈ 6.87 µM) | 6.3 µg/mL (≈ 14 µM) | 0.8 µg/mL (≈ 1.77 µM) | > 50 µg/mL | 0.8 µg/mL (≈ 1.77 µM) | 
N#Cc1ccc(NC(=O)c2cc(C(=O)c3cccc4ccccc34)ccc2O)c2ccccc12 [NA1NpC] | 0.4 micrograms/ml | NE (NE indicates that the drug was not effective at a concentration >50 micrograms/ml) | 0.2 micrograms/ml | 0.2 micrograms/ml | NE (NE indicates that the drug was not effective at a concentration >50 micrograms/ml) | 0.8 micrograms/ml |  |  |  |  |  | 
O=C(Nc1cc(C(F)(F)F)cc(C(F)(F)F)c1)c1cc(C(=O)c2cccc3ccccc23)ccc1O [NAmF2] |  |  |  | 0.2 micrograms/ml |  |  | 0.4 µg/mL (≈ 0.795 µM) | 1.6 µg/mL (≈ 3.18 µM) | 0.2 µg/mL (≈ 0.397 µM) | > 50 µg/mL | 0.8 µg/mL (≈ 1.59 µM) | 
O=C(Nc1cccc(COc2ccccc2)c1)c1cc(C(=O)c2cccc3ccccc23)ccc1O [NA1_3BnOP] |  |  |  | 3.1 micrograms/ml |  |  | > 50 µg/mL | > 50 µg/mL | 3.1 µg/mL (≈ 6.55 µM) | > 50 µg/mL | 6.3 µg/mL (≈ 13.3 µM) | 
O=C(c1ccccc1)c1ccc(NC(=O)c2cc(C(=O)c3cccc4ccccc34)ccc2O)cc1 [NA1pBz] | NE (NE indicates that the drug was not effective at a concentration >50 micrograms/ml) | NE (NE indicates that the drug was not effective at a concentration >50 micrograms/ml) | NE (NE indicates that the drug was not effective at a concentration >50 micrograms/ml) | NE (NE indicates that the drug was not effective at a concentration >50 micrograms/ml) | NE (NE indicates that the drug was not effective at a concentration >50 micrograms/ml) | NE (NE indicates that the drug was not effective at a concentration >50 micrograms/ml) |  |  |  |  |  | 
O=C(Nc1cccc(Oc2ccccc2)c1)c1cc(C(=O)c2cccc3ccccc23)ccc1O [NA1mOPh] | NE (NE indicates that the drug was not effective at a concentration >50 micrograms/ml) | NE (NE indicates that the drug was not effective at a concentration >50 micrograms/ml) | NE (NE indicates that the drug was not effective at a concentration >50 micrograms/ml) | NE (NE indicates that the drug was not effective at a concentration >50 micrograms/ml) | NE (NE indicates that the drug was not effective at a concentration >50 micrograms/ml) | NE (NE indicates that the drug was not effective at a concentration >50 micrograms/ml) |  |  |  |  |  | 
